Columns and labels:
Format in all cases: in vivo
[1] = system: Cowpea Aphid (Aphis craccivora); assay: B.1 Cowpea aphid spray test on potted cowpea plants; conditions: in comparison with untreated controls, population reduction assessed after 24, 72 and 120 hours
Description: B.1 Cowpea Aphid (Aphis craccivora)
The active compounds were formulated in 50:50 (v/v) acetone:water. The test solution was prepared at the day of use. Potted cowpea plants colonized with approximately 100-150 aphids of various stages were sprayed after the pest population has been recorded. Population reduction was assessed after 24, 72, and 120 hours.

[2] = system: Orchid Thrips (Dichromothrips corbetti); assay: B.4 Orchid thrips floral-immersion test; conditions: 96 h, in comparison with untreated controls, after 4 days
Description: B.4 Orchid Thrips (Dichromothrips Corbetti)
Dichromothrips corbetti adults used for bioassay are obtained from a colony maintained continuously under laboratory conditions. For testing purposes, the test compound is diluted to a concentration of 300 ppm (wt compound: vol diluent) in a 1:1 mixture of acetone:water (vol:vol), plus 0.01% vol/vol Kinetic® surfactant. Thrips potency of each compound is evaluated by using a floral-immersion technique. Plastic petri dishes are used as test arenas. All petals of individual, intact orchid flowers are dipped into treatment solution and allowed to dry. Treated flowers are placed into individual petri dishes along with 10-15 adult thrips. The petri dishes are then covered with lids. All test arenas are held under continuous light and a temperature of about 28° C. for duration of the assay. After 4 days, the numbers of live thrips are counted on each flower, and along inner walls of each petri dish. The level of thrips mortality is extrapolated from pre-treatment thrips numbers.

[3] = system: Vetch Aphid (Megoura viciae); assay: B.7 Vetch aphid test on broad bean leaf disks; conditions: foliar, 120 h, in comparison with untreated controls, 5 days
Description: B.7 Vetch Aphid (Megoura viciae)
For evaluating control of vetch aphid (Megoura viciae) through contact or systemic means the test unit consisted of 24-well-microtiter plates containing broad bean leaf disks. The compounds were formulated using a solution containing 75% v/v water and 25% v/v DMSO. Different concentrations of formulated compounds were sprayed onto the leaf disks at 2.5 μl, using a custom built micro atomizer, at two replications. After application, the leaf disks were air-dried and 5-8 adult aphids placed on the leaf disks inside the microtiter plate wells. The aphids were then allowed to suck on the treated leaf disks and incubated at about 23±1° C. and about 50±5% relative humidity for 5 days. Aphid mortality and fecundity was then visually assessed.

[4] = system: Tobacco Budworm (Heliothis virescens); assay: B.8 Tobacco budworm test on sprayed cotton plants; conditions: 96 h, in comparison with untreated controls, 4 days after treatment
Description: B.8 Tobacco Budworm (Heliothis virescens) I
The active compounds were formulated in cyclohexanone as a 10,000 ppm solution supplied in tubes. The tubes were inserted into an automated electrostatic sprayer equipped with an atomizing nozzle and they served as stock solutions for which lower dilutions were made in 50% acetone:50% water (v/v). A nonionic surfactant (Kinetic®) was included in the solution at a volume of 0.01% (v/v). Cotton plants were grown 2 plants to a pot and selected for treatment at the cotyledon stage. Test solutions were sprayed onto the foliage by an automated electrostatic plant sprayer equipped with an atomizing spray nozzle. The plants were dried in the sprayer fume hood and then removed from the sprayer. Each pot was placed into perforated plastic bags with a zip closure. About 10 to 11 budworm larvae were placed into the bag and the bags zipped closed. Test plants were maintained in a growth room at about 25° C. and about 20-40% relative humidity for 4 days, avoiding direct exposure to fluorescent light (24 hour photoperiod) to prevent trapping of heat inside the bags. Mortality and reduced feeding were assessed 4 days after treatment, compared to untreated control plants.

[5] = system: Boll Weevil (Anthonomus grandis); assay: B.9 Boll weevil microtiter diet test, egg and larval mortality; conditions: 120 h, in comparison with untreated controls, egg and larval mortality after 5 days
Description: B.9 Boll Weevil (Anthonomus grandis)
(§1) For evaluating control of boll weevil (Anthonomus grandis) the test unit consisted of 24-well-microtiter plates containing an insect diet and 20-30 A. grandis eggs. The compounds were formulated using a solution containing 75% v/v water and 25% v/v DMSO. Different concentrations of formulated compounds were sprayed onto the insect diet at 20 μl, using a custom built micro atomizer, at two replications. After application, microtiter plates were incubated at about 23±1° C. and about 50±5% relative humidity for 5 days. Egg and larval mortality was then visually assessed.

[6] = system: Rice brown plant hopper (Nilaparvata lugens); assay: B.11 Rice brown plant hopper test on sprayed rice seedlings; conditions: in comparison with untreated controls, after 72 hours
Description: B.11 Rice brown plant hopper (Nilaparvata lugens)
Rice seedlings were cleaned and washed 24 hours before spraying. The active compounds were formulated in 50:50 acetone:water (vol:vol) and 0.1% vol/vol surfactant (EL 620) was added. Potted rice seedlings were sprayed with 5 ml test solution, air dried, placed in cages and inoculated with 10 adults. Treated rice plants were kept at about 28-29° C. and relative humidity of about 50-60%. Percent mortality was recorded after 72 hours.

[7] = system: Yellow Fever Mosquito (Aedes aegypti); assay: whole plant or invertebrate; conditions: 48 h, in comparison with untreated controls, larval mortality after 2 days
Description: B.12 Yellow Fever Mosquito (Aedes aegypti)
For evaluating control of yellow fever mosquito (Aedes aegypti) the test unit consisted of 96-well-microtiter plates containing 200 μl of tap water per well and 5-15 freshly hatched A. aegypti larvae. The compounds or mixtures were formulated using a solution containing 75% water and 25% DMSO. Different concentrations of formulated compounds or mixtures were sprayed onto the insect diet at 2.5 μl, using a custom built micro atomizer, at two replications. After application, microtiter plates were incubated at 28±1° C., 80±5% relative humidity for 2 days. Larval mortality was then visually assessed.

[8] = system: Green Soldier Stink Bug (Nezara viridula); assay: B.15 Green soldier stink bug test on sprayed soybean pods; conditions: 120 h, in comparison with untreated controls, after 5 days
Description: B.15 Green Soldier Stink Bug (Nezara viridula)
The active compound is dissolved at the desired concentration in a mixture of 1:1 (vol:vol) distilled water:aceteone. Surfactant (Kinetic HV) is added at a rate of 0.01% (vol/vol). The test solution is prepared at the day of use. Soybean pods were placed in microwavable plastic cups lined with moist filter paper and inoculated with ten 3rd instar N. viridula. Using a hand atomizer, an approximately 2 ml solution is sprayed into each cup. Treated cups were kept at about 28-29° C. and relative humidity of about 50-60%. Percent mortality was recorded after 5 days.

[9] = system: Green Peach Aphid (Myzus persicae); assay: B.3 Green peach aphid systemic test, artificial diet under membrane; conditions: 72 h, concentration of the test solution 2500 mg/L, 3 days
Text: B.3 Green Peach Aphid (Myzus persicae)
For evaluating control of green peach aphid (Myzus persicae) through systemic means the test unit consisted of 96-well-microtiter plates containing liquid artificial diet under an artificial membrane. The compounds were formulated using a solution containing 75% v/v water and 25% v/v DMSO. Different concentrations of formulated compounds were pipetted into the aphid diet, using a custom built pipetter, at two replications. After application, 5-8 adult aphids were placed on the artificial membrane inside the microtiter plate wells. The aphids were then allowed to suck on the treated aphid diet and incubated at about 23±1° C. and about 50±5% relative humidity for 3 days. Aphid mortality and fecundity was then visually assessed.

[10] = system: Silverleaf Whitefly (Bemisia argentifolii); assay: B.5 Silverleaf whitefly test on sprayed cotton plants; conditions: 72 h, in comparison with untreated controls, 3 days after treatment
Description: B.5 Silverleaf Whitefly (Bemisia argentifolii)
The active compounds were formulated in cyclohexanone as a 10,000 ppm solution supplied in 1.3 ml ABgene® tubes. These tubes were inserted into an automated electrostatic sprayer equipped with an atomizing nozzle and they served as stock solutions for which lower dilutions were made in 50% acetone:50% water (v/v). A nonionic surfactant (Kinetic®) was included in the solution at a volume of 0.01% (v/v). Cotton plants at the cotyledon stage (one plant per pot) were sprayed by an automated electrostatic plant sprayer equipped with an atomizing spray nozzle. The plants were dried in the sprayer fume hood and then removed from the sprayer. Each pot was placed into a plastic cup and 10 to 12 whitefly adults (approximately 3-5 days old) were introduced. The insects were collected using an aspirator and 0.6 cm, nontoxic Tygon® tubing (R-3603) connected to a barrier pipette tip. The tip, containing the collected insects, was then gently inserted into the soil containing the treated plant, allowing insects to crawl out of the tip to reach the foliage for feeding. Cups were covered with a reusable screened lid (150-micron mesh polyester screen PeCap from Tetko, Inc.). Test plants were maintained in a growth room at 25° C. and 20-40% relative humidity for 3 days, avoiding direct exposure to fluorescent light (24 hour photoperiod) to prevent trapping of heat inside the cup. Mortality was assessed 3 days after treatment, compared to untreated control plants.

[11] = system: Southern Armyworm (Spodoptera eridania); assay: B.6 Southern armyworm test on sprayed lima bean plants; conditions: 96 h, 500 ppm, in comparison with untreated controls, 4 days after treatment
Description: B.6 Southern Armyworm (Spodoptera eridania)
The active compounds were formulated in cyclohexanone as a 10,000 ppm solution supplied in 1.3 ml ABgene® tubes. These tubes were inserted into an automated electrostatic sprayer equipped with an atomizing nozzle and they served as stock solutions for which lower dilutions were made in 50% acetone:50% water (v/v). A nonionic surfactant (Kinetic®) was included in the solution at a volume of 0.01% (v/v). Lima bean plants (variety Sieva) were grown 2 plants to a pot and selected for treatment at the 1st true leaf stage. Test solutions were sprayed onto the foliage by an automated electrostatic plant sprayer equipped with an atomizing spray nozzle. The plants were dried in the sprayer fume hood and then removed from the sprayer. Each pot was placed into perforated plastic bags with a zip closure. Ten to 11 armyworm larvae were placed into the bag and the bags zipped closed. Test plants were maintained in a growth room at 25° C. and 20-40% relative humidity for 4 days, avoiding direct exposure to fluorescent light (24 hour photoperiod) to prevent trapping of heat inside the bags. Mortality and reduced feeding were assessed 4 days after treatment, compared to untreated control plants.

[12] = system: Red Spider Mite (Tetranychus kanzawai); assay: B.10 Red spider mite test on sprayed cowpea beans; conditions: in comparison with untreated controls, 72 hours after treatment
Description: B.10 Red Spider Mite (Tetranychus kanzawai)
The active compound is dissolved at the desired concentration in a mixture of 1:1 (vol:vol) distilled water:acetone. Add surfactant (Alkamuls® EL 620) at the rate of 0.1% (vol/vol). The test solution is prepared at the day of use. Potted cowpea beans of 7-10 days of age were cleaned with tap water and sprayed with 5 ml of the test solution using air driven hand atomizer. The treated plants were allowed to air dry and afterwards inculated with 20 or more mites by clipping a cassava leaf section with known mite population. Treated plants were placed inside a holding room at about 25-27° C. and about 50-60% relative humidity. Percent mortality was assessed 72 hours after treatment.

[13] = system: Mediterranean Fruitfly (Ceratitis capitata); assay: B.2 Mediterranean fruitfly microtiter diet test, egg and larval mortality; conditions: 120 h, in comparison with untreated controls, egg and larval mortality after 5 days
Description: B.2 Mediterranean Fruitfly (Ceratitis capitata)
as §1, with “Mediterranean fruitfly (Ceratitis capitata)” for “boll weevil (Anthonomus grandis)”, “microtiter” for “24-well-microtiter”, “50-80 C. capitata” for “20-30 A. grandis”, “5” for “20”, “28±1°” for “23±1°”, “80±5%” for “50±5%”

N#CC(C#N)(Cc1ccc(C(F)(F)F)nc1)c1ccccc1 [II-3]
≥ 75%: mortality at 500 ppm [1] | mortality at 500 ppm [2] | mortality at 2500 ppm [3] | mortality at 2500 ppm [4] | mortality at 2500 ppm [5] | mortality at 300 ppm [6] | mortality at 2500 ppm [7] | mortality at 500 ppm [8]

N#CC(C#N)(Cc1ccc(F)cn1)c1ccccc1 [II-11]
≥ 75%: mortality at 2500 µg/mL [9] | mortality at 2500 ppm [4]

N#CC(C#N)(Cc1ncc(C(F)(F)F)cn1)c1ccccc1 [II-16]
≥ 75%: mortality at 500 ppm [1] | mortality at 2500 µg/mL [9] | mortality at 500 ppm [2] | mortality at 500 ppm [10] | mortality at 500 ppm [11] | mortality at 2500 ppm [3] | mortality at 2500 ppm [5] | mortality at 500 ppm [12] | mortality at 300 ppm [6] | mortality at 2500 ppm [7]

N#CC(C#N)(Cc1cnc(C(F)(F)F)nc1)c1ccccc1 [II-20]
≥ 75%: mortality at 500 ppm [1] | mortality at 2500 ppm [13] | mortality at 2500 µg/mL [9] | mortality at 500 ppm [2] | mortality at 500 ppm [10] | mortality at 2500 ppm [3] | mortality at 2500 ppm [5] | mortality at 500 ppm [12] | mortality at 300 ppm [6] | mortality at 2500 ppm [7] | mortality at 500 ppm [8]

N#CC(C#N)(Cc1cnc(C(F)(F)F)cn1)c1ccccc1 [II-26]
≥ 75%: mortality at 500 ppm [1] | mortality at 2500 ppm [13] | mortality at 500 ppm [2] | mortality at 500 ppm [10] | mortality at 2500 ppm [3] | mortality at 2500 ppm [4] | mortality at 2500 ppm [5] | mortality at 500 ppm [12] | mortality at 2500 ppm [7]

N#CC(C#N)(Cc1cnc(C(F)(F)F)cn1)c1cccc(F)c1 [II-28]
≥ 75%: mortality at 500 ppm [1] | mortality at 500 ppm [2] | mortality at 500 ppm [10] | mortality at 2500 ppm [3] | mortality at 2500 ppm [5] | mortality at 500 ppm [12] | mortality at 2500 ppm [7]

N#CC(C#N)(Cc1cccnc1)c1ccccc1 [II-31]
≥ 75%: mortality at 500 ppm [10] | mortality at 2500 ppm [4] | mortality at 2500 ppm [5]

N#CC(C#N)(Cc1ccc(C(F)(F)F)nc1)c1cc(F)c(F)c(F)c1 [II-43]
≥ 75%: mortality at 500 ppm [1] | mortality at 2500 ppm [13] | mortality at 2500 µg/mL [9] | mortality at 500 ppm [2] | mortality at 2500 ppm [3] | mortality at 2500 ppm [5] | mortality at 500 ppm [12] | mortality at 300 ppm [6] | mortality at 2500 ppm [7]

N#CC(C#N)(Cc1ccc(F)nc1F)c1ccccc1 [II-50]
≥ 75%: mortality at 500 ppm [2] | mortality at 2500 ppm [4] | mortality at 2500 ppm [7]

N#CC(C#N)(Cc1ccc(F)nc1F)c1cc(F)cc(F)c1 [II-52]
≥ 75%: mortality at 2500 µg/mL [9] | mortality at 500 ppm [2] | mortality at 2500 ppm [4] | mortality at 2500 ppm [5]

Source: patent US10117430B2, “Malononitrile compounds for controlling animal pests” (BASF SE, priority 2012, dated 2018)
